Here are results for three compounds from BindingDB's records for doi:10.3109/14756366.2011.584535 (Balikesir University, 2012).

One assay addresses Carbonic anhydrase 1 (Homo sapiens, UniProt P00915). Nature of the assay: CA Enzyme Assay. The method, then: (§1) CA activity was measured by the Maren method which is based on determination of the time required for the pH to decrease from 10.0 to 7.4 due to CO2 hydration [Maren et al., J. Pharm. Exp. Ther., 130:2629-2634].
The target of another assay is Carbonic anhydrase 2 (Homo sapiens, UniProt P00918). The assay is described as follows: CA Enzyme Assay. As to the method:
as §1

pIC50: −log10 of the molar value.

Carbonic anhydrase 1, sequence (P00915 whole entry): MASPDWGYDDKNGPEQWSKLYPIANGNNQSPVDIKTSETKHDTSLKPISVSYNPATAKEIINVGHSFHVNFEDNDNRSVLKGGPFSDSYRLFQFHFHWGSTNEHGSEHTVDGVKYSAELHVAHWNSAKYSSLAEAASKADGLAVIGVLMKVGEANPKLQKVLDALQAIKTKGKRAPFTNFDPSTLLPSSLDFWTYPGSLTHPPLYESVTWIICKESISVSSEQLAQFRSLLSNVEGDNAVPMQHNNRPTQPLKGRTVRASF

As usually defined, the pIC50 is the negative decadic logarithm of the IC50, by convention in mol/L. Read a low pIC50 as a large IC50. Consider `CC1CCCC(O)CCCCCc2cc(O)cc(O)c2C(=O)O1` (stereo unspecified) [Zeranol (4)], for which the results for the negative logarithm of the IC50 (pIC50) at Carbonic anhydrase 1 and at Carbonic anhydrase 2 were 3.05 and 4.00, respectively.
For `CC/C(=C(/CC)c1ccc(O)cc1)c1ccc(O)cc1`, in that order: 4.03 and 4.05.
As to `CC12C=CC3=C4CCC(=O)C=C4CCC3C1CCC2O` (stereo unspecified) [Trenbolone (2)], the pIC50 is 4.26 on Carbonic anhydrase 1 and 3.80 against Carbonic anhydrase 2.
